# Data from patent US12162872B2, “Cycloalkylurea derivative” (Sumitomo Pharma Co., Ltd., priority 2019, dated 2024).
# Key:
# [1] = target: T1, Human orexin receptor type 2 (Homo sapiens, UniProt O43614); assay: Test 1: Evaluation of agonist activity for orexin receptor type 2 (aequorin luminescence, intracellular calcium mobilization in CHO cells); assay type: cell-based; settings: relative percentage of luminescence for the luminescence (100%) of Orexin A (100 pM); CHO cells transiently expressing human orexin receptor type 2 and apoaequorin; Orexin A Lot. 641114
# T1 construct: expressed in transfected cells; host or cells: CHO cells (transient expression)
# T1 sequence (O43614 1-444): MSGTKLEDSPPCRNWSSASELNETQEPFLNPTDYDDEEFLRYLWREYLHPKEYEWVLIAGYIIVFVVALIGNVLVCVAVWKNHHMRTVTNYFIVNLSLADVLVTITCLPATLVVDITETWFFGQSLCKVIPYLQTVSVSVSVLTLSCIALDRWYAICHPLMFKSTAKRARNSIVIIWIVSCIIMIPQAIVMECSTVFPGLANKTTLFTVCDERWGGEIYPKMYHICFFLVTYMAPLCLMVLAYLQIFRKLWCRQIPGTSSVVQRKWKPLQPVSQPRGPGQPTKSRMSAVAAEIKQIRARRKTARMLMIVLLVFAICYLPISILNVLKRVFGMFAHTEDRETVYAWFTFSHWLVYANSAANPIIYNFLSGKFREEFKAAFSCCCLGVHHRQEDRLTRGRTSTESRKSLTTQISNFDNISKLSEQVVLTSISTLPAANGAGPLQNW
# Description: Test 1: Evaluation of Agonist Activity for Orexin Receptor Type 2
# Human orexin receptor type 2 and apoaequorin were transiently expressed in CHO cells, and the agonist activity was evaluated based on intracellular calcium mobilization with ligand stimulation. The CHO cells transiently-expressed human orexin receptor type 2 and apoaequorin were seeded on a 384-well plate by 2,000 cells/well, and then incubated for 16-22 hours. After the plate was returned to room temperature, Coelenterazine hcp (final concentration: 1 μM) was added to the plate, and the plate was allowed to stand at room temperature for 2 hours. And then, Orexin A (PEPTIDE INSTITUTE, INC., Lot. 641114) or each test compound was added to the plate, and the luminescence of the cells was measured with FDSS7000 (Hamamatsu Photonics K.K.), wherein Orexin A and each test compound were dissolved in DMSO (final concentration: 0.1%), and diluted with a buffer (Hanks, 20 mM HEPES, 0.1% BSA). The agonist activity of each test compound for orexin receptor type 2 was calculated as relative percentage of luminescence for the luminescence (100%) of Orexin A (100 pM).
# [2] = target: T1, Human orexin receptor type 2; assay: Test 2: Evaluation of agonist activity for orexin receptor type 2 (aequorin luminescence, intracellular calcium mobilization in CHO cells); assay type: cell-based; settings: relative percentage of luminescence for the luminescence (100%) of Orexin A (100 pM); CHO cells transiently expressing human orexin receptor type 2 and apoaequorin; Orexin A Lot. 671009
# How it was run: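 CHO cells transiently co-expressing the receptor and apoaequorin, incubated 16–22 h, were loaded 2 h at room temperature with 1 μM coelenterazine hcp (final). Compounds in Hanks/20 mM HEPES/0.1% BSA (0.1% DMSO final) were added and the calcium luminescence was read and expressed as % of Orexin A (100 pM).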
Structure (SMILES),agonist activity (%) [1] [%],agonist activity (%) [2] [%]
"Cc1ccc(C2CCN(C(=O)N[C@H]3CCCC[C@@H]3N3CCN(C(C)C)CC3)CC2)cc1 (racemic) [Example 1, rac-4-(4-Methylphenyl)-N-{(1S,2S)-2-[4-(propan-2-yl)piperazin-1-yl]cyclohexyl}piperidine-1-carboxamide]",137,–
"CC(C)(F)CN1CC[C@H](O[C@H]2CCCC(F)(F)[C@@H]2NC(=O)N2CCC(C)(c3noc([C@@H]4C[C@@H]4F)n3)CC2)C1 [Example 143, N-[(1R,6S)-2,2-difluoro-6-{[(3S)-1-(2-fluoro-2-methylpropyl)pyrrolidin-3-yl]oxy}cyclohexyl]-4-{5-[(1S,2S)-2-fluorocyclopropyl]-1,2,4-oxadiazol-3-yl}-4-methylpiperidine-1-carboxamide]",–,444
"CN(CC1CC1)[C@H]1CCCN([C@H]2CCCC(F)(F)[C@@H]2NC(=O)N2CCC(C)(c3noc([C@@H]4C[C@@H]4F)n3)CC2)CC1 [Example 144, N-[(1R,6S)-6-{(4S)-4-[(cyclopropylmethyl)(methyl)amino]azepan-1-yl}-2,2-difluorocyclohexyl]-4-{5-[(1S,2S)-2-fluorocyclopropyl]-1,2,4-oxadiazol-3-yl}-4-methylpiperidine-1-carboxamide]",–,399
"CN(CC1CC1)[C@@H]1CCCN([C@H]2CCCC(F)(F)[C@@H]2NC(=O)N2CCC(C)(c3noc([C@@H]4C[C@@H]4F)n3)CC2)CC1 [Example 145, N-[(1R,6S)-6-{(4R)-4-[(cyclopropylmethyl)(methyl)amino]azepan-1-yl}-2,2-difluorocyclohexyl]-4-{5-[(1S,2S)-2-fluorocyclopropyl]-1,2,4-oxadiazol-3-yl}-4-methylpiperidine-1-carboxamide]",–,403
"CC(C)N1CCN([C@H]2CCCC(F)(F)[C@@H]2N(C)C(=O)N2CCC(C)(c3noc([C@@H]4C[C@@H]4F)n3)CC2)CC1 [Example 146, N-{(1R,6S)-2,2-difluoro-6-[4-(propan-2-yl)piperazin-1-yl]cyclohexyl}-4-{5-[(1S,2S)-2-fluorocyclopropyl]-1,2,4-oxadiazol-3-yl}-N,4-dimethylpiperidine-1-carboxamide]",–,23
"CC(C)N1CCN([C@H]2CCCC(C)(C)[C@@H]2NC(=O)N2CCC(C)(c3noc(C4CC4)n3)CC2)CC1 [Example 147, 4-(5-cyclopropyl-1,2,4-oxadiazol-3-yl)-N-{(1S,6S)-2,2-dimethyl-6-[4-(propan-2-yl)piperazin-1-yl]cyclohexyl}-4-methylpiperidine-1-carboxamide]",–,373
"CC(C)N(C)C1CN([C@H]2CCCC(F)(F)[C@@H]2NC(=O)N2CCC(C)(c3noc([C@@H]4C[C@@H]4F)n3)CC2)C1 [Example 148, N-[(1R,6S)-2,2-difluoro-6-{3-[methyl(propan-2-yl)amino]azetidin-1-yl}cyclohexyl]-4-{5-[(1S,2S)-2-fluorocyclopropyl]-1,2,4-oxadiazol-3-yl}-4-methylpiperidine-1-carboxamide]",–,391
"CN(CC1CC1)C1CN([C@H]2CCCC(F)(F)[C@@H]2NC(=O)N2CCC(C)(c3noc([C@@H]4C[C@@H]4F)n3)CC2)C1 [Example 149, N-[(1R,6S)-6-{3-[(cyclopropylmethyl)(methyl)amino]azetidin-1-yl}-2,2-difluorocyclohexyl]-4-{5-[(1S,2S)-2-fluorocyclopropyl]-1,2,4-oxadiazol-3-yl}-4-methylpiperidine-1-carboxamide]",–,419
"CC1(CN2CC[C@H](O[C@H]3CCCC(F)(F)[C@@H]3NC(=O)N3CCC(C)(c4noc([C@@H]5C[C@@H]5F)n4)CC3)C2)COC1 [Example 150, N-[(1R,6S)-2,2-difluoro-6-({(3S)-1-[(3-methyloxetan-3-yl)methyl]pyrrolidin-3-yl}oxy)cyclohexyl]-4-{5-[(1S,2S)-2-fluorocyclopropyl]-1,2,4-oxadiazol-3-yl}-4-methylpiperidine-1-carboxamide]",–,437
"CC(C)N1CCCN([C@H]2CCCC(F)(F)[C@@H]2NC(=O)N2CCC(C)(c3noc([C@@H]4C[C@@H]4F)n3)CC2)CC1 [Example 152, N-{(1R,6S)-2,2-difluoro-6-[4-(propan-2-yl)-1,4-diazepan-1-yl]cyclohexyl}-4-{5-[(1S,2S)-2-fluorocyclopropyl]-1,2,4-oxadiazol-3-yl}-4-methylpiperidine-1-carboxamide]",–,470
"CC(C)N1CCN(C(=O)O[C@H]2CCCC(F)(F)[C@@H]2NC(=O)N2CCC(C)(c3noc([C@@H]4C[C@@H]4F)n3)CC2)CC1 [Example 153, (1S,2R)-3,3-difluoro-2-[(4-{5-[(1S,2S)-2-fluorocyclopropyl]-1,2,4-oxadiazol-3-yl}-4-methylpiperidine-1-carbonyl)amino]cyclohexyl 4-(propan-2-yl)piperazine-1-carboxylate]",–,350
"CC(C)N1CCC(S[C@H]2CCCC(F)(F)[C@@H]2NC(=O)N2CCC(C)(c3noc([C@@H]4C[C@@H]4F)n3)CC2)CC1 [Example 154, N-[(1S,6S)-2,2-difluoro-6-{[1-(propan-2-yl)piperidin-4-yl]sulfanyl}cyclohexyl]-4-{5-[(1S,2S)-2-fluorocyclopropyl]-1,2,4-oxadiazol-3-yl}-4-methylpiperidine-1-carboxamide]",–,493
"CC(C)N1CCC(S(=O)(=O)[C@H]2CCCC(F)(F)[C@@H]2NC(=O)N2CCC(C)(c3noc([C@@H]4C[C@@H]4F)n3)CC2)CC1 [Example 155, N-{(1S,6S)-2,2-difluoro-6-[1-(propan-2-yl)piperidine-4-sulfonyl]cyclohexyl}-4-{5-[(1S,2S)-2-fluorocyclopropyl]-1,2,4-oxadiazol-3-yl}-4-methylpiperidine-1-carboxamide]",–,167
CC(C)N1CCN([C@H]2CCC[C@H](F)[C@@H]2NC(=O)N2CCC(C)(c3noc([C@@H]4C[C@@H]4F)n3)CC2)CC1 [Example 156],–,323
"CC(C)CN(C)C1CCN([C@H]2CCCC(F)(F)[C@@H]2NC(=O)N2CCC(C)(c3noc([C@@H]4C[C@@H]4F)n3)CC2)CC1 [Example 157, N-[(1R,6S)-2,2-difluoro-6-{4-[methyl(2-methylpropyl)amino]piperidin-1-yl}cyclohexyl]-4-{5-[(1S,2S)-2-fluorocyclopropyl]-1,2,4-oxadiazol-3-yl}-4-methylpiperidine-1-carboxamide]",–,392
"CN(CC1CC1)C1CCN([C@H]2CCCC(F)(F)[C@@H]2NC(=O)N2CCC(C)(c3noc([C@@H]4C[C@@H]4F)n3)CC2)CC1 [Example 158, N-[(1R,6S)-6-{4-[(cyclopropylmethyl)(methyl)amino]piperidin-1-yl}-2,2-difluorocyclohexyl]-4-{5-[(1S,2S)-2-fluorocyclopropyl]-1,2,4-oxadiazol-3-yl}-4-methylpiperidine-1-carboxamide]",–,389
"CN(C1CCC1)C1CCN([C@H]2CCCC(F)(F)[C@@H]2NC(=O)N2CCC(C)(c3noc([C@@H]4C[C@@H]4F)n3)CC2)CC1 [Example 159, N-[(1R,6S)-6-{4-[cyclobutyl(methyl)amino]piperidin-1-yl}-2,2-difluorocyclohexyl]-4-{5-[(1S,2S)-2-fluorocyclopropyl]-1,2,4-oxadiazol-3-yl}-4-methylpiperidine-1-carboxamide]",–,392
"CCN(C)C1CCN([C@H]2CCCC(F)(F)[C@@H]2NC(=O)N2CCC(C)(c3noc([C@@H]4C[C@@H]4F)n3)CC2)CC1 [Example 160, N-[(1R,6S)-6-{4-[ethyl(methyl)amino]piperidin-1-yl}-2,2-difluorocyclohexyl]-4-{5-[(1S,2S)-2-fluorocyclopropyl]-1,2,4-oxadiazol-3-yl}-4-methylpiperidine-1-carboxamide]",–,410
"CC(C)N1CC[C@H](N[C@H]2CCCC(F)(F)[C@@H]2NC(=O)N2CCC(C)(c3noc([C@@H]4C[C@@H]4F)n3)CC2)C1 [Example 161, N-[(1R,6S)-2,2-Difluoro-6-{[(3S)-1-(propan-2-yl)pyrrolidin-3-yl]amino}cyclohexyl]-4-{5-[(1S,2S)-2-fluorocyclopropyl]-1,2,4-oxadiazol-3-yl}-4-methylpiperidine-1-carboxamide]",–,374
